What follows are compounds tested on wild oat (assay: Test Example 4: herbicidal effect by soil treatment (Table 19, symbol I)). Conditions: amount of applied herbicide 320 g/ha.
Format: in vivo, wild oat (Avena fatua)
Method in brief: (§1)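 Scoring uses the grading scale of an earlier test, three weeks post-application. Treatment consists of spraying a diluted emulsion formulation across the surface of sterilized diluvial soil in which seeds are buried near 1.5 cm deep; boxes are kept in a greenhouse between 25° C. and 30° C.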
With `COCCOc1ccc2c(-c3c(O)c(C)nn(C)c3=O)c(-c3ccccc3OC)sc2c1` [3-121] the “I: wild oat, herbicidal effect grade” value was 3 (Herbicidal rate of 40% or more and less than 70%).
For `COc1ccccc1-c1sc2cc(OCC3CC3)ccc2c1-c1c(O)c(C)nn(C)c1=O` [3-129], the “I: wild oat, herbicidal effect grade” value was 1 (Herbicidal rate of 5% or more and less than 20%).

Each compound was assayed on velvetleaf (assay: Test Example 4: herbicidal effect by soil treatment (Table 19, symbol M)). Conditions: amount of applied herbicide 320 g/ha.
Format: in vivo, velvetleaf (Abutilon theophrasti)
Method in brief: as §1
In the case of `COCCOc1ccc2c(-c3c(O)c(C)nn(C)c3=O)c(-c3ccccc3OC)sc2c1` [3-121], the “M: velvetleaf, herbicidal effect grade” value is reported as 5 (Herbicidal rate of 90% or more (almost completely withered)).
With `COc1ccccc1-c1sc2cc(OCC3CC3)ccc2c1-c1c(O)c(C)nn(C)c1=O` [3-129] the “M: velvetleaf, herbicidal effect grade” value was 0 (Herbicidal rate of 5% or less (almost no effect)).

What follows are compounds tested on Italian ryegrass (assay: Test Example 5: herbicidal effect by foliage application, plastic box (Table 20, symbol K)). Conditions: foliage application, 320 g/ha, three weeks after application.
Format: in vivo, Italian ryegrass (Lolium multiflorum)
Method in brief: (§2)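 Post-emergence foliar test in sterilized diluvial soil. Compound applied as water-diluted emulsion at a predetermined rate to 14-day-old plants; evaluation at three weeks.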
In the case of `COCCOc1ccc2c(-c3c(O)c(C)nn(C)c3=O)c(-c3ccccc3OC)sc2c1` [3-121], the “K: Italian ryegrass, herbicidal effect grade” value (“K: Italian ryegrass” below) is reported as 5 (Herbicidal rate of 90% or more (almost completely withered)).
For `COc1ccccc1-c1sc2cc(OCC3CC3)ccc2c1-c1c(O)c(C)nn(C)c1=O` [3-129], the “K: Italian ryegrass” value was 5 (Herbicidal rate of 90% or more (almost completely withered)).

What follows are compounds tested on lambsquarters (assay: Test Example 4: herbicidal effect by soil treatment (Table 19, symbol O)). Conditions: amount of applied herbicide 320 g/ha.
Format: in vivo, lambsquarters (Chenopodium album)
Method in brief: as §1
In the case of `COCCOc1ccc2c(-c3c(O)c(C)nn(C)c3=O)c(-c3ccccc3OC)sc2c1` [3-121], the “O: lambsquarters, herbicidal effect grade” value (shortened to “O: lambsquarters”) is reported as 5 (Herbicidal rate of 90% or more (almost completely withered)).
For `COc1ccccc1-c1sc2cc(OCC3CC3)ccc2c1-c1c(O)c(C)nn(C)c1=O` [3-129], the “O: lambsquarters” value was 5 (Herbicidal rate of 90% or more (almost completely withered)).

These compounds were tested on Japanese bulrush (assay: Test Example 2: herbicidal activity, application during weed generation under submerged conditions (Table 17, symbol B)). Conditions: AAH 320 g/ha; application during weed generation, submerged conditions.
Format: in vivo, Japanese bulrush (Schoenoplectus juncoides)
Method in brief: (§3)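 3-wk visual-criteria score after one water-surface dose. Emulsion formulation, water-diluted to set rate; applied at 1–2 leaf stage; alluvial soil, 4 cm standing water; seeds co-sown; greenhouse 25–30° C.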
With `COCCOc1ccc2c(-c3c(O)c(C)nn(C)c3=O)c(-c3ccccc3OC)sc2c1` [3-121] the “herbicidal effect rating, B: Japanese bulrush” value was 3 (Herbicidal rate of 40% or more and less than 70%).
With `COc1ccccc1-c1sc2cc(OCC3CC3)ccc2c1-c1c(O)c(C)nn(C)c1=O` [3-129] the “herbicidal effect rating, B: Japanese bulrush” value was 3 (Herbicidal rate of 40% or more and less than 70%).

What follows are compounds tested on Japanese bulrush (assay: Test Example 1: herbicidal activity, application before weed generation under submerged conditions (Table 16, symbol B)). Conditions: amount of applied herbicide 320 g/ha.
Format: in vivo, Japanese bulrush (Schoenoplectus juncoides)
Method in brief: (§4)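 Submerged Wagner pots (alluvial soil, 4 cm water) sown with weed seeds and planted with 2.5-leaf rice seedlings; emulsifiable concentrate diluted in water applied to water surface on sowing day. Held in greenhouse at 25-30 °C; injury scored 0-5 by herbicidal rate after three weeks.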
For `COCCOc1ccc2c(-c3c(O)c(C)nn(C)c3=O)c(-c3ccccc3OC)sc2c1` [3-121], the “Herbicidal effect, B: Japanese bulrush” value was 5 (Herbicidal rate of 90% or more (almost completely withered)).
In the case of `COc1ccccc1-c1sc2cc(OCC3CC3)ccc2c1-c1c(O)c(C)nn(C)c1=O` [3-129], the “Herbicidal effect, B: Japanese bulrush” value is reported as 5 (Herbicidal rate of 90% or more (almost completely withered)).

These compounds were tested on late watergrass (assay: Test Example 2: herbicidal activity, application during weed generation under submerged conditions (Table 17, symbol A)). Conditions: AAH 320 g/ha; application during weed generation, submerged conditions.
Format: in vivo, late watergrass (Echinochloa oryzicola)
Method in brief: as §3
For `COCCOc1ccc2c(-c3c(O)c(C)nn(C)c3=O)c(-c3ccccc3OC)sc2c1` [3-121], the “herbicidal effect rating, A: late watergrass” value was 3 (Herbicidal rate of 40% or more and less than 70%).
For `COc1ccccc1-c1sc2cc(OCC3CC3)ccc2c1-c1c(O)c(C)nn(C)c1=O` [3-129], the “herbicidal effect rating, A: late watergrass” value was 3 (Herbicidal rate of 40% or more and less than 70%).

The compounds below were run on lambsquarters (assay: Test Example 5: herbicidal effect by foliage application, plastic box (Table 20, symbol O)). Conditions: foliage application, 320 g/ha, three weeks after application.
Format: in vivo, lambsquarters (Chenopodium album)
Method in brief: as §2
In the case of `COCCOc1ccc2c(-c3c(O)c(C)nn(C)c3=O)c(-c3ccccc3OC)sc2c1` [3-121], the “O: lambsquarters” value is reported as 5 (Herbicidal rate of 90% or more (almost completely withered)).
With `COc1ccccc1-c1sc2cc(OCC3CC3)ccc2c1-c1c(O)c(C)nn(C)c1=O` [3-129] the “O: lambsquarters” value was 4 (Herbicidal rate of 70% or more and less than 90%).

What follows are compounds tested on wild oat (assay: Test Example 5: herbicidal effect by foliage application, plastic box (Table 20, symbol I)). Conditions: foliage application, 320 g/ha, three weeks after application.
Format: in vivo, wild oat (Avena fatua)
Method in brief: as §2
For `COCCOc1ccc2c(-c3c(O)c(C)nn(C)c3=O)c(-c3ccccc3OC)sc2c1` [3-121], the “I: wild oat, herbicidal effect grade” value was 5 (Herbicidal rate of 90% or more (almost completely withered)).
For `COc1ccccc1-c1sc2cc(OCC3CC3)ccc2c1-c1c(O)c(C)nn(C)c1=O` [3-129], the “I: wild oat, herbicidal effect grade” value was 3 (Herbicidal rate of 40% or more and less than 70%).

These compounds were tested on windgrass (assay: Test Example 5: herbicidal effect by foliage application, plastic box (Table 20, symbol L)). Conditions: foliage application, 320 g/ha, three weeks after application.
Format: in vivo, windgrass (Apera spica-venti)
Method in brief: as §2
In the case of `COCCOc1ccc2c(-c3c(O)c(C)nn(C)c3=O)c(-c3ccccc3OC)sc2c1` [3-121], the “L: windgrass, herbicidal effect grade” value is reported as 5 (Herbicidal rate of 90% or more (almost completely withered)).
`COc1ccccc1-c1sc2cc(OCC3CC3)ccc2c1-c1c(O)c(C)nn(C)c1=O` [3-129] was tested, and the “L: windgrass, herbicidal effect grade” value was 5 (Herbicidal rate of 90% or more (almost completely withered)).

The compounds below were run on chickweed (assay: Test Example 5: herbicidal effect by foliage application, plastic box (Table 20, symbol P)). Conditions: foliage application, 320 g/ha, three weeks after application.
Format: in vivo, common chickweed (Stellaria media)
Method in brief: as §2
For `COCCOc1ccc2c(-c3c(O)c(C)nn(C)c3=O)c(-c3ccccc3OC)sc2c1` [3-121], the “P: chickweed, herbicidal effect grade” value was 5 (Herbicidal rate of 90% or more (almost completely withered)).
For `COc1ccccc1-c1sc2cc(OCC3CC3)ccc2c1-c1c(O)c(C)nn(C)c1=O` [3-129], the “P: chickweed, herbicidal effect grade” value was 5 (Herbicidal rate of 90% or more (almost completely withered)).

Each compound was assayed on oval-leafed pondweed (assay: Test Example 1: herbicidal activity, application before weed generation under submerged conditions (Table 16, symbol C)). Conditions: amount of applied herbicide 320 g/ha.
Format: in vivo, oval-leafed pondweed (Monochoria vaginalis)
Method in brief: as §4
In the case of `COCCOc1ccc2c(-c3c(O)c(C)nn(C)c3=O)c(-c3ccccc3OC)sc2c1` [3-121], the “Herbicidal effect, C: oval-leafed pondweed” value is reported as 5 (Herbicidal rate of 90% or more (almost completely withered)).
In the case of `COc1ccccc1-c1sc2cc(OCC3CC3)ccc2c1-c1c(O)c(C)nn(C)c1=O` [3-129], the “Herbicidal effect, C: oval-leafed pondweed” value is reported as 5 (Herbicidal rate of 90% or more (almost completely withered)).

Each compound was assayed on persian speedwell (assay: Test Example 4: herbicidal effect by soil treatment (Table 19, symbol R)). Conditions: amount of applied herbicide 320 g/ha.
Format: in vivo, Persian speedwell (Veronica persica)
Method in brief: as §1
`COCCOc1ccc2c(-c3c(O)c(C)nn(C)c3=O)c(-c3ccccc3OC)sc2c1` [3-121] was tested, and the “R: persian speedwell, herbicidal effect grade” value was 5 (Herbicidal rate of 90% or more (almost completely withered)).
With `COc1ccccc1-c1sc2cc(OCC3CC3)ccc2c1-c1c(O)c(C)nn(C)c1=O` [3-129] the “R: persian speedwell, herbicidal effect grade” value was 4 (Herbicidal rate of 70% or more and less than 90%).

Each compound was assayed on rice flat sedge (assay: Test Example 3: herbicidal effect by foliage application, Wagner pot (Table 18, symbol E)). Conditions: 320 g/ha.
Format: in vivo, rice flat sedge (Cyperus iria)
Method in brief: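 Plants were sown in alluvial soil held under 0.1–0.5 cm standing water and grown 14 days in a greenhouse at 25–30 °C. An emulsifiable formulation, water-diluted to the set dose, was then sprayed onto the foliage, and effects were scored three weeks later using previously defined criteria.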
`COCCOc1ccc2c(-c3c(O)c(C)nn(C)c3=O)c(-c3ccccc3OC)sc2c1` [3-121] was tested, and the “herbicidal effect on rice flat sedge (E)” value was 5 (Herbicidal rate of 90% or more (almost completely withered)).
In the case of `COc1ccccc1-c1sc2cc(OCC3CC3)ccc2c1-c1c(O)c(C)nn(C)c1=O` [3-129], the “herbicidal effect on rice flat sedge (E)” value is reported as 5 (Herbicidal rate of 90% or more (almost completely withered)).

Each compound was assayed on velvetleaf (assay: Test Example 5: herbicidal effect by foliage application, plastic box (Table 20, symbol M)). Conditions: foliage application, 320 g/ha, three weeks after application.
Format: in vivo, velvetleaf (Abutilon theophrasti)
Method in brief: as §2
In the case of `COCCOc1ccc2c(-c3c(O)c(C)nn(C)c3=O)c(-c3ccccc3OC)sc2c1` [3-121], the “M: velvetleaf, herbicidal effect grade” value is reported as 5 (Herbicidal rate of 90% or more (almost completely withered)).
With `COc1ccccc1-c1sc2cc(OCC3CC3)ccc2c1-c1c(O)c(C)nn(C)c1=O` [3-129] the “M: velvetleaf, herbicidal effect grade” value was 4 (Herbicidal rate of 70% or more and less than 90%).

Each compound was assayed on Italian ryegrass (assay: Test Example 4: herbicidal effect by soil treatment (Table 19, symbol K)). Conditions: amount of applied herbicide 320 g/ha.
Format: in vivo, Italian ryegrass (Lolium multiflorum)
Method in brief: as §1
`COCCOc1ccc2c(-c3c(O)c(C)nn(C)c3=O)c(-c3ccccc3OC)sc2c1` [3-121] was tested, and the “K: Italian ryegrass” value was 5 (Herbicidal rate of 90% or more (almost completely withered)).
In the case of `COc1ccccc1-c1sc2cc(OCC3CC3)ccc2c1-c1c(O)c(C)nn(C)c1=O` [3-129], the “K: Italian ryegrass” value is reported as 5 (Herbicidal rate of 90% or more (almost completely withered)).

What follows are compounds tested on barnyard grass (assay: Test Example 5: herbicidal effect by foliage application, plastic box (Table 20, symbol H)). Conditions: foliage application, 320 g/ha, three weeks after application.
Format: in vivo, barnyard grass (Echinochloa crus-galli)
Method in brief: as §2
`COCCOc1ccc2c(-c3c(O)c(C)nn(C)c3=O)c(-c3ccccc3OC)sc2c1` [3-121] was tested, and the “H: barnyard grass, herbicidal effect grade” value was 5 (Herbicidal rate of 90% or more (almost completely withered)).
With `COc1ccccc1-c1sc2cc(OCC3CC3)ccc2c1-c1c(O)c(C)nn(C)c1=O` [3-129] the “H: barnyard grass, herbicidal effect grade” value was 4 (Herbicidal rate of 70% or more and less than 90%).
